Publication PMC7399337, “Biological Properties and Absolute Configuration of Flavanones From Calceolaria thyrsiflora Graham” (Frontiers in Pharmacology, 2020)

What was measured:
[1] = test system: MEF primary mouse embryonic fibroblast; assay: In vitro cytotoxic activity, CyQuant cell viability, 72 h; type: cell-based; details: MEF (non-cancerous cells); 72 h
Method: The used cell lines include MDA-MB-231 human breast adenocarcinoma cells, B16-F10 mouse metastatic melanoma cells and MEF primary mouse embryonic fibroblast. Cells were maintained in a DMEM high glucose medium (Mediatech, Manassas, VA, USA) supplemented with 10% (MDA-MB-231 and B16-F10) or 15% (MEF) heat-inactivated fetal bovine serum (HyClone Laboratories, South Logan, USA), 100 IU ml^-1 penicillin and 100 μg ml^-1 streptomycin while maintained at 37°C in a 5% CO2 humidified atmosphere. Cell viability was measured using a CyQuant® Direct Cell Proliferation Assay Kit (Life Technologies, Grand Island, NY, USA) following the manufacturer’s instruction. Briefly, 5,000 cells per well were seeded onto a flat-bottom 96-well plate in 200 μL final volume. Six hours after seeding, the culture medium was replaced by the medium containing the tested compounds at 0.01 to 100 µM concentrations in DMSO (0.1% final concentration) during 72 h. Untreated cells (medium containing only 0.1% DMSO) were used as controls. At the end of the incubation, 100 μL of culture medium was removed from each well and replaced by detection reagent solution provided by the kit (which is a 1:5 mixture of the reagent CyQUANT®, direct nucleic acid stain and the reagent labeled as CyQUANT® direct background suppressor I). Cells were incubated for 1 h and fluorescence emission was measured at 535 nm with excitation at 480 nm in a microplate reader (Infinite 200 PRO, Tecan, Grödig, Austria). At least four independent experiments were performed for each concentration. The results from each experiment were transformed into percentage of controls and the LC50 values were graphically obtained from the dose-response curves. The LC50 value was obtained adjusting the dose-response curve to sigmoidal curves (variable slope) using the GraphPad Prisma 6.0 software ([GraphPad-Software, 2015]).

5-hLOX = target: T1, 5-hLOX (Homo sapiens, UniProt P09917); assay: In vitro 5-hLOX enzyme assay (H2DCFDA fluorescence); type: biochemical; details: kinetic assays, inhibitor 0–1 μM, substrate 0.2–5 μM
T1 construct: purchased Cayman Chemicals Inc. (Ann Arbor, MI, USA)
T1 sequence (P09917 1-674): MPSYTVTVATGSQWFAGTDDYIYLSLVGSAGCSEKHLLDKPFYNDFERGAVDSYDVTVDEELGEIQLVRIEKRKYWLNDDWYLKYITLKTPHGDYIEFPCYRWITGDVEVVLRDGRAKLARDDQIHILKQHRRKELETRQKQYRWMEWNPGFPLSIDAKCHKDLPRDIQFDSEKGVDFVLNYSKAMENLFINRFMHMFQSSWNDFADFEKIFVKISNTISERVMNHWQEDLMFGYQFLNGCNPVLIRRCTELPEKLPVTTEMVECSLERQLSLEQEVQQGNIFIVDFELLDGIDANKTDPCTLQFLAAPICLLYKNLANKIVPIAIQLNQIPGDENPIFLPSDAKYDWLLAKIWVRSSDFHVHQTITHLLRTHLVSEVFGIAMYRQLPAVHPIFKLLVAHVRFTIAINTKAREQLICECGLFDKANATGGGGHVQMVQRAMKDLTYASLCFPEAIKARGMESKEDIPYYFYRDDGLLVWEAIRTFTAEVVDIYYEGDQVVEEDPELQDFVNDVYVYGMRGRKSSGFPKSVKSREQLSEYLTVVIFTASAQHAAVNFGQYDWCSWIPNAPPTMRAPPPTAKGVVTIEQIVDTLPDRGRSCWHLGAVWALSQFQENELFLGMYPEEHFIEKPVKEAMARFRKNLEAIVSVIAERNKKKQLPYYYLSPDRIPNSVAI

Row | SMILES | LC50 ± SD [1] | Ki (5-hLOX) [µM]
1 | COc1cc(O)c2c(c1)O[C@H](c1ccc(O)cc1)CC2=O [Compound 1, (-)-(2S)-5,4’-dihydroxy-7-methoxyflavanone] | no significant cytotoxic activity | 
2 | COc1cc(O)c2c(c1)O[C@H](c1ccc(O)c(O)c1)CC2=O [Compound 2, (-)-(2S)-5,3’,4’-trihydroxy-7-methoxyflavanone] |  | 0.05
